Measured values as given in patent US20040175368A1 (Wisconsin Alumni Research Foundation, priority 2001, published 2004).

Experiments:
L1210 cells = assay: Uptake of dye by L1210 cells; type: cell-based, murine; conditions: for Dye Uptake by L1210 Cells: 1 hour at 37° C. in the dark, 12% FBS
Description: L1210 cells were suspended at a concentration of 1.0×10^6 cells/mL in HEPES-buffered (10 mM, pH 7.4) alpha-medium supplemented with FBS (12%), and the TAM^+dyes were added from 1.0×10^−4M stock solutions in 50% ethanol to final concentrations of […]. The cells were subsequently incubated in the dark for 1 hour at 37° C., pelleted, washed with dye-free medium, and extracted with ethanol (1 mL per […]). The dye content of each extract was determined spectrophotometrically using calibration curves assembled using suitable dilutions of authentic dye in ethanol extracts of cells that had been incubated in dye-free medium.

murine CFU-GM cells = assay: Dye-sensitized photoinactivation of normal hematopoietic CFU-GM cells, in vitro clonal assay; type: cell-based; conditions: 1.0×10^−6 M dye, 12% FBS, light up to 90 min (FIG. 3 lower panel)
[1] = Photobleaching quantum efficiency of TAM+ dyes noncovalently bound to BSA (532-nm laser photolysis); type: physicochemical
Description: Spectrophotometric studies were performed with a Shimadzu UV-2101PC spectrophotometer. 1-Octanol/water partition coefficients^18 (P), were determined at 25° C. using equal volumes of water and 1-octanol. Typically, five distinct solutions of each dye in the concentration range between 1 μM and 10 μM were prepared in deionized water and subsequently equilibrated with 1-octanol. After the equilibrium was reached, the final dye concentrations in the aqueous and/or organic phases were determined by absorption spectroscopy. For the measurement of photobleaching quantum efficiencies, the samples were placed in standard 10-mm (optical path) quartz cells at a distance of approximately 10 cm from the light source and photolyzed using the 532-nm line of an Nd:YAG laser model 7010 from Continuum operating at a repetition rate of 10 Hz. The defocused laser beam (circular profile with a diameter of about 5 mm) was directed to the center of the quartz cell. The absolute photolysis energy (or the number of 532-nm photons per laser pulse) was kept constant over the course of any specific experiment. The temperature-controlled cell holder allowed continuous magnetic stirring of the samples during photolysis. The photobleaching quantum efficiencies were based on the photobleaching efficiency of a classical chemical actinometer, potassium ferrioxalate, ^19,20 and determined considering only the first 5 to 10% decrease in dye concentration. The photolysis energy was adjusted to appropriate levels with the use of a calibrated solid-state joulemeter model PM30VI from Molectron.
To explore how the photoreactivity of the TAM^+dyes in complex biologic environments correlates with the observed phototoxic effects toward tumor and normal cells, the photo-bleaching efficiency of TAM^+dyes noncovalently bound to a model biologic host (bovine serum albumin, BSA) was measured. For the case of CFU-GM cells, the efficacy of photoinduced cell destruction mediated by TAM^+dyes precisely paralleled the photochemical reactivity of these photosensitizers. Both, phototoxicity (FIG. 3, lower panel) and photoreactivity (Table 1) followed the decreasing order EV^+>VPBBO^+>CV^+>VBR^+.

RBL cells = assay: Two-photon laser scanning microscopy of intracellular dye distribution; type: cell-based, rat; conditions: 0.2 μM dye; for intracellular distribution of dye fluorescence: 10 minutes incubation
Description: RBL cells were incubated in the dark at a concentration of 1.1×10^5 cells/mL for periods ranging from 1 minute to 1 hour with fresh growth media containing 0.2 μM CV^+or Ev^+and subsequently incubated for 30 minutes in the dark with fresh growth media containing 0.05 μM Rh123; After a final cycle of washing and incubation for 15 minutes in fresh growth media, the media were replaced by modified Tyrode's solution containing 5 mM glucose and bovine serum albumin, and the cells were subjected to two-photon imaging. The examination of TAM^+accumulation into mitochondria was carried out through the comparison of the spatial distribution of the fluorescence of these dyes in the cellular environment with that of Rh123 (a classical mitochondrial marker^1,3) and the endogenous NAD(P)H. Fluorescence distributions within living RBL cells were obtained with a laser scanning multiphoton microscope (Bio-Rad MP1024). […] Three external detectors located in the Fourier plane of the microscope and equipped with appropriate sets of longpass dichroic and bandpass filters (from Chroma) were used for the simultaneous detection of two-photon excited fluorescence of NAD(P)H (400-500 nm), Rh123 (520-550 nm), and CV^+or EV^+(600-660 nm). To obtain sufficient fluorescence from CV^+,EV^+, and cellular NAD(P)H autofluorescence (all inefficient fluorophores), average excitation powers of approximately 18 mW were required. […]
Two-photon laser scanning microscopy^22,28 was used to obtain information on intracellular distribution and mitochondrial accumulation of CV^+and EV^+in RBL cells. […] Simultaneous two-photon images of NAD(P)H, Rh123, and TAM^+fluorescence were obtained by exciting RBL cells at 750 nm with a Ti:Sapphire laser (75 fs, 80 MHz, 18 mW) as the excitation source. No morphologic alterations or induction of fluorescence attributed to cellular photodamage was observed during the brief imaging period (approximately 3 seconds), and the bleaching of the three fluorophores was also negligible during this period. […]

quantum efficiency of photobleaching, nitrogen-purged relative to air-equilibrated samples ([1]; BSA-bound) | photobleaching efficiency of dimer relative to monomer ([1]; BSA-bound, air-equilibrated) | photobleaching efficiency of BSA-bound dimer ([1]; air-equilibrated samples, dimer) | photobleaching efficiency of BSA-bound monomer ([1]; air-equilibrated samples, monomer) | SMILES | Dye Uptake by L1210 Cells (L1210 cells) [molecules/cell] | phototoxicity toward normal hematopoietic CFU-GM cells (in words) (murine CFU-GM cells) | relative efficiency of uptake by L1210 cells (in words) (L1210 cells; among the TAM+ dyes tested) | intracellular distribution of dye fluorescence (RBL cells) | effect on mitochondria after prolonged incubation (RBL cells; 1 hour incubation, then 0.05 μM Rh123) | phototoxicity toward normal hematopoietic CFU-GM cells (in words) (murine CFU-GM cells; listed as VPBBO+)
– | – | – | – | CCN=C1C=CC(=C(c2ccc(N(C)C)cc2)c2ccc(N(C)C)cc2)c2ccccc21.Cl [VBR^+, victoria blue R] | 8.8e+07 | lowest efficacy | – | – | – | –
twofold higher | eightfold higher | 1.1×10^−4 | 1.3×10^−5 | CN(C)c1ccc(C(=C2C=CC(=[N+](C)C)C=C2)c2ccc(N(C)C)cc2)cc1 [CV^+, crystal violet] | 2.14e+08 | comparatively small toxic effects | most efficiently taken up by L1210 cells | consistent with mitochondrial localization | mitochondrial inner membrane potential has been reduced | –
– | – | – | – | CCN=C1C=CC(=C(c2ccc(N(CC)CC)cc2)c2ccc(N(CC)CC)cc2)c2ccccc21.Cl [VPBBO^+, victoria pure blue BO] | 1.16e+08 | considerably more efficient in inactivating normal hematopoietic cells | – | – | – | intermediate efficacy
– | – | – | – | CCN(CC)c1ccc(C(=C2C=CC(=[N+](CC)CC)C=C2)c2ccc(N(CC)CC)cc2)cc1 [EV^+, ethyl violet] | 1.76e+08 | phototoxic toward both cell lines | – | also accumulates into cell mitochondria | – | –
